Data on 1 substance can be found in patent publication US20110230407A1, “HEPATOCYTE GROWTH FACTOR PATHWAY ACTIVATORS IN DEMYELINATING DISEASES AND CENTRAL NERVOUS SYSTEM TRAUMA” (priority 2005, published 2011).

Format in all cases: cell-based
For experiment [1], the system named is Schwann cells. The experiment in a line: H2O2-induced apoptosis of Schwann cells (Apo-ONE Assay kit). The conditions noted are these: 0.5 mM H2O2 for 2 hours; HGF 50 ng/ml, mimetic 10 micromolar; FIG. 1. Here is the method:
HGF and small molecule HGF/SF mimetic protect Schwann cells against H2O2-induced apoptosis. Schwann cells were seeded in 96 well plates at a density of 5000 cells/well, overnight in serum-free media. Cells were treated with 0.5 mM H2O2 for 2 hours in the presence of vehicle (Veh), HGF (50 ng/ml) or HGF/SF mimetic (10 micromolar). Cells were assayed for apoptosis using the Apo-ONE Assay kit (Promega).

In experiment [2] the test system is Schwann cells. The experiment in a line: Myelin production by fluoromyelin staining, Schwann cells. The conditions noted are these: 4 hours. Here is the method:
HGF/SF and small molecule HGF/SF mimetic increase myelin production in Schwann cells. It is well-known that the primary function of oligodendrocytes and Schwann cells is myelin production. […] Cells were seeded in 3 well chamber slides at a density of 50,000 cells/well in serum free media for 24 hours. Then HGF/SF (50 ng/ml) or a small molecule HGF/SF mimetic (5 μM) were added to the same medium and cells incubated for an additional 4 hours. Cells were washed, and fluoromyelin (Molecular Probes) was added to each well (30 min exposure at room temperature), and cells observed under a confocal microscope (Olympus). […] To obtain semi-quantitative measurements of this increase in the fluoromyelin signal, a second experiment was performed. Schwann cells were seeded in 6 well plates at a density of 4×10^5 cells/well and treated with HGF (50 ng/ml) or mimetic (5 uM) for 4 hours. Fluoromyelin staining was performed as described above and relative fluorescence was measured using a fluorescence plate reader.

The subject of a further experiment is oligodendrocytes. The experiment in a line: Myelin production by fluoromyelin staining, oligodendrocytes. Conditions: HGF/SF 50 ng/ml, mimetic 5 μM, 4 hours.
The subject of the next experiment is rat RSC96 Schwann cells. The experiment in a line: Schwann cell proliferation, [3H]-thymidine incorporation. Conditions: treated 16-24 hours, serum-free; FIGS. 3A and 3B. From the text: (§1) Small molecule HGF/SF agonist mimics HGF/SF's pro-proliferative effects. Oligodendrocytes and Schwann cells are both cells that support neuronal function by ensheathing neuronal axons with myelin. An individual supporting cell comprises a single segment of an axon's myelin sheath and is active in facilitating axonal growth. An important aspect of HGF/SF activity is this growth factor's ability to induce oligodendrocyte and Schwann cell proliferation. In order to evaluate small molecule HGF/SF mimetics for potential HGF/SF-like bioactivity, rat RSC96 Schwann cells (ATCC, Manassas, Va.) or mouse primary oligodendrocytes (Celprogen, San Pedro, Calif.) were seeded in 96-well plates at 5000 cells/well in serum-free medium for 16 hours. Cells were treated with test compound or HGF/SF (positive control) for 16-24 hours. [^3H]-thymidine was added to the medium with Schwann cells, WST1 cell proliferation reagent (Roche, Indianapolis, Ind.) was added to oligodendrocytes, and incubation was continued for another 4-5 hours. Schwann cells were washed with PBS and harvested. [^3H]-thymidine incorporation was determined and used as a measure of proliferation (increased DNA synthesis). Cells with WST1 reagent were read using a plate reader at an OD of 490 nm.
In general terms: Uptake of a labelled nucleoside into DNA is a usual measure of proliferation.

Experiment [3] relates to mouse primary oligodendrocytes. The experiment is described as follows: Oligodendrocyte proliferation, WST1 reagent. Conditions: treated 16-24 hours, serum-free; FIGS. 3C and 3D.
Text: as §1

The test system of experiment [4] is fibroblasts lacking the Met receptor. The experiment in a line: Mitogenesis in fibroblasts lacking the Met receptor. Here is the method:
To determine whether mimetic-mediated Met phosphorylation induces similar intracellular signaling cascades as HGF/SF, and to assess whether these signaling events convey biologic activity, experiments were carried out using an Akt inhibitor and the phosphoinositide3-kinase inhibitor Wortmannin.

The next experiment has as its system smooth muscle cells. The experiment is described as follows: Mitogenesis in smooth muscle cells lacking the Met receptor.
In the next experiment the test system is Human neurons. The experiment in a line: Neuronal axon growth and cell density in human neurons. The conditions noted are these: 48 hours, FIG. 5. The method, then: In this experiment, the ability of HGF/SF and mimetic to activate axonal growth was assessed. Human neurons (ATCC) were seeded in 6-well plates (1000 cell/well) in media containing 1% FBS. Cells were treated with HGF/SF (50 ng/ml) or mimetic (5 micromolar) for 48 hours. […] Cell shape, size, and density are clearly different in the presence of HGF/SF and mimetic compared with control. […] In one experiment, neurons were incubated with conditioned media from Schwann cells (FIG. 5, right field). […] Thus, secreted growth factors present in Schwann cell media are ineffective (or are at least effects are below the level of detection) as cell mitogens.

For a further experiment, the system named is NGF, BDNF, and NT-4. The experiment is described as follows: Expression of neurotrophic growth factors in Schwann cells, Western blot. Conditions: Schwann cell protein extracts; FIG. 6. The text has this:
HGF/SF- and HGF/SF mimetic-activated Schwann cells show increased expression of neurotrophic growth factors.
For orientation: Immunoblotting shows a protein as a band on a membrane.

The subject of experiment [5] is Schwann cells. The experiment in a line: Schwann cell migration, Migration Chamber. Conditions: 22 hours, quantified with Calcein; FIG. 7. Here is the method: HGF/SF mimetic recapitulates HGF/SF activity in Schwann cells. To compare the direct effects of HGF/SF mimetic and HGF/SF on cell migration, an in vitro migration assay was employed using a Migration Chamber (BD Biosciences). 50,000 cells were seeded in the inner chamber for 22 hours in the presence of 0.4% or 10% FBS, HGF/SF, or mimetic. Cell number was quantified with […] Calcein using a fluorescence plate reader.

Regarding “HGF/SF: Scatter factor / hepatocyte growth factor, pleiotropic growth factor, heparin binding heterodimeric protein signalling through Met”, the “cell viability after H2O2” value in the experiment with Schwann cells [1] is on record as “substantial improvement in cell viability”. In the experiment on Schwann cells [2] (HGF 50 ng/ml, mimetic 5 uM, FIG. 2B), the “increase in the fluoromyelin signal, relative fluorescence by plate reader” value worked out at 3 fold. Moreover, the “fluoromyelin signal, confocal microscope” value in the experiment with Schwann cells [2] (HGF/SF 50 ng/ml, mimetic 5 μM, FIG. 2A) is reported as “intense increase”. Besides, the “myelin production in oligodendrocytes” value with oligodendrocytes is listed as “induce myelin production”. Further, the “Schwann cell proliferation ([3H]-thymidine incorporation)” value in the experiment on rat RSC96 Schwann cells is given as “activate”. For the same substance, the “oligodendrocyte proliferation (WST1, OD 490 nm)” value in [3] is “activate”. For the same substance, the “mitogenesis in fibroblasts lacking the Met receptor” value in experiment [4] is “neither the mimetic nor HGF/SF activated mitogenesis”. For the same substance, the “mitogenesis in smooth muscle cells, which also lack the Met receptor” value in the experiment on smooth muscle cells is “A similar result was obtained”. In the experiment with Human neurons, the “neuronal cell proliferation / cell density” value is “activate neuronal cell proliferation”. For the same substance, the neuronal axon growth entry in the experiment with Human neurons (HGF/SF 50 ng/ml, mimetic 5 micromolar, 1% FBS) is listed as “activate neuronal axon growth”. Further, in the experiment on NGF, BDNF, and NT-4, the “expression of NGF, BDNF, and NT-4 cytokines” value is “over-express”. In addition, the Schwann cell migration entry in the experiment with Schwann cells [5] is reported as “similarly increase Schwann cell migration”.
